Assay [1] concerns the target T1, rCsHK (Clonorchis sinensis, UniProt G7YJ23).
T1 construct: gene CLF_109217
T1 sequence (G7YJ23 1-449): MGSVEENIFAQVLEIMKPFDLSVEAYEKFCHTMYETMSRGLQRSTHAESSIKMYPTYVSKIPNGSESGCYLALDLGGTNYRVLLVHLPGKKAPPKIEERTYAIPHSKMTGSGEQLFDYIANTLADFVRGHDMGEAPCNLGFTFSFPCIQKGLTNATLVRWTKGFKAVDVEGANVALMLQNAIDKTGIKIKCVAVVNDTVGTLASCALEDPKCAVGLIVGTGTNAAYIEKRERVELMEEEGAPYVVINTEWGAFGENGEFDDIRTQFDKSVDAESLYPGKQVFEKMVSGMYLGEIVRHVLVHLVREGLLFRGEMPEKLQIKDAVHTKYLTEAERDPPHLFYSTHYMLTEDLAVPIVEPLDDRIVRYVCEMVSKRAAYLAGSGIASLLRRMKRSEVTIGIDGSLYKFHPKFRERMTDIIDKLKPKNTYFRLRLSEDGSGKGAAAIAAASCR
The experiment in a line: G6PD-coupled NADPH formation at […] nm, Hill fit. It counts as biochemical. The note with it: 3 mM glucose, 15 mM MgCl2, pH 8.5.

The target in assay [2] is T1, rCsHK. Briefly: G6PD-coupled NADPH formation at […] nm. It counts as biochemical. The note with it: read-out: % inhibition at 10 mM.

Results on 6 compounds are retold here after publication PMC4370448, “Advanced Enzymology, Expression Profile and Immune Response of Clonorchis sinensis Hexokinase Show Its Application Potential for Prevention and Control of Clonorchiasis” (PLoS Neglected Tropical Diseases, 2015).

The inhibition is the change of the read-out against control, counted positive when it falls.

Consider `C=C(OP(=O)(O)O)C(=O)O` [PEP], for which, at rCsHK [1] (0-10 mM, allosteric activator, mixed K+V+ with respect to ATP), the “G6PD-coupled NADPH formation at 340 nm, Hill fit” value (shortened to “G6PD-coupled NADPH formation”) is listed as “PEP displayed allosteric activation of rCsHK with respect to ATP”. On to `Nc1ccn([C@@H]2O[C@H](COP(=O)(O)OP(=O)(O)OP(=O)(O)O)[C@@H](O)[C@H]2O)c(=O)n1` [CTP], for which the inhibition at 10000 µM at rCsHK [2] is 8.6%. Still for that read-out and setting: the value for `Nc1ncnc2c1ncn2[C@@H]1O[C@H](COP(=O)(O)OP(=O)(O)OP(=O)(O)O)[C@@H](O)[C@H]1O` [ATP] was 13.8%. As for `Nc1ncnc2c1ncn2[C@@H]1O[C@H](COP(=O)(O)O)[C@@H](O)[C@H]1O` [AMP], the “G6PD-coupled NADPH formation” value at rCsHK [1] (0-5 mM, allosteric activator, mixed K+V+ with respect to ATP) is reported as “AMP exhibited a mixed allosteric K+V+ effect”. Take `Cc1cn([C@H]2C[C@H](O)[C@@H](COP(=O)(O)OP(=O)(O)OP(=O)(O)O)O2)c(=O)[nH]c1=O` [TTP]: the inhibition at 10000 µM on rCsHK [2] stood at 14.3%. As for `O=C(O)CC(O)(CC(=O)O)C(=O)O` [citrate], at rCsHK [1] (0-10 mM, allosteric, K+V+ activator at 5 and 10 mM, net inhibition (K-V+) at 2 mM, with respect to ATP), the “G6PD-coupled NADPH formation” value was “Citrate exhibited an unusual mixed allosteric effect on rCsHK with respect to ATP”.
